ChEMBL document CHEMBL5236671, “Synthesis and biological evaluation of novel aromatic amide derivatives as potential BCR-ABL inhibitors” (Bioorg Med Chem Lett, 2023)
The source made the active and inactive calls. The calls are words filed in the database; no cut-off is given here.

Tests used:
K562 [1] = assay: Antitumor activity against human K562 cells assessed as inhibition of cell growth; format: functional, cell-based
HL-60 = assay: Antitumor activity against human HL-60 cells assessed as inhibition of cell growth; format: functional, cell-based
MCF7 = assay: Antitumor activity against human MCF7 cells assessed as inhibition of cell growth; format: functional, cell-based
K562 [2] = assay: Antimigratory activity against human K562 cells assessed as decrease in cell migration at 2.5 to 10 uM; format: functional, cell-based; conditions: dose 2.5-10 µM
[3] = target: Tyrosine-protein kinase ABL1 (Homo sapiens) (UniProt P00519); assay: Inhibition of ABL1 phosphorylation in human K562 cells at 2.5 to 10 uM by Western blot analysis; format: cell-based; conditions: dose 2.5-10 µM
Chain of Tyrosine-protein kinase ABL1 (Homo sapiens) (P00519 whole entry): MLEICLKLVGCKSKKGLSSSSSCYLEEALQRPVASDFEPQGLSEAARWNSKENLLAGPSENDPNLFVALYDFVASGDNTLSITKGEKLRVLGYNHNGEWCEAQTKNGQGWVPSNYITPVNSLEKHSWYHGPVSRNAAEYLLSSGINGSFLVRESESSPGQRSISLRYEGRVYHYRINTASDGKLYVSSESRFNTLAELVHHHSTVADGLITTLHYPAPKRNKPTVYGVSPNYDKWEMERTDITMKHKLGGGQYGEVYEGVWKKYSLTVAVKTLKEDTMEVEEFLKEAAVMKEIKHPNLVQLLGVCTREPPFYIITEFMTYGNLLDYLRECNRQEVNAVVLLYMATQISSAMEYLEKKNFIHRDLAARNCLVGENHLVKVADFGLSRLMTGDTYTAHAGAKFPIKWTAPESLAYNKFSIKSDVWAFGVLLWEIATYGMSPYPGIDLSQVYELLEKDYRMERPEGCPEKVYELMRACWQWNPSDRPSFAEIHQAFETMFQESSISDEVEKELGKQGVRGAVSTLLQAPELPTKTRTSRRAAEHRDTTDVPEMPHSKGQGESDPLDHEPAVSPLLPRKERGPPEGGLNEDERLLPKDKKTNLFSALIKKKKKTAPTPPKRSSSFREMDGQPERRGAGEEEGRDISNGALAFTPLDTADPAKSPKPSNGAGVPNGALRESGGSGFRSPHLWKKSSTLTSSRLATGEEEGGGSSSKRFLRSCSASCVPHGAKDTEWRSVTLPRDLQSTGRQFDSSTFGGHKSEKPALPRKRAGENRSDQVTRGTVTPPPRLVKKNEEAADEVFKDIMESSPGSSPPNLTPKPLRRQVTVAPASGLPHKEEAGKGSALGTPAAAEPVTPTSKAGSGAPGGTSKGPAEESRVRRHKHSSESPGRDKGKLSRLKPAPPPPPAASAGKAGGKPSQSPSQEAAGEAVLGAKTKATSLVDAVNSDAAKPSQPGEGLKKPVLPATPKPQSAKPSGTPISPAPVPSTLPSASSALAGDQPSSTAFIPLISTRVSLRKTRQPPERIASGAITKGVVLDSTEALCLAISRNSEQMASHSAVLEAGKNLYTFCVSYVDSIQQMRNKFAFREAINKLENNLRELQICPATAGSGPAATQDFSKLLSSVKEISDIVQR

[4] = target: Crk-like protein (Homo sapiens) (UniProt P46109); assay: Inhibition of CRKL phosphorylation in human K562 cells at 2.5 to 10 uM by Western blot analysis; format: cell-based; conditions: dose 2.5-10 µM
Chain of Crk-like protein (Homo sapiens) (P46109 whole entry): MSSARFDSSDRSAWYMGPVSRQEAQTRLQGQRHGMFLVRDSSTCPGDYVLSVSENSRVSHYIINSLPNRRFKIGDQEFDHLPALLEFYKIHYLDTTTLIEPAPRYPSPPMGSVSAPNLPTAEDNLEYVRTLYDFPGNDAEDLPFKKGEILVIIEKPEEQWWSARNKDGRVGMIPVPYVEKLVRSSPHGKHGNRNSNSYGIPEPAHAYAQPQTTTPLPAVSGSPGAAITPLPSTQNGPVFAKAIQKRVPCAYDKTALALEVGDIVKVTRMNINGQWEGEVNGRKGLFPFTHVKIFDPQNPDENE

K562 [5] = assay: Induction of apoptosis in human K562 cells assessed as increase in caspase-3 expression by Western blot analysis; format: functional, cell-based; conditions: dose 2.5-10 µM
K562 [6] = assay: Induction of apoptosis in human K562 cells assessed as increase in cleaved caspase-3 expression by Western blot analysis; format: functional, cell-based; conditions: dose 2.5-10 µM
K562 [7] = assay: Induction of apoptosis in human K562 cells assessed as viable cells at 10 uM incubated for 24 hrs by Annexin V-FITC staining based flow cytometric analysis (reference value: 93.4 % ); format: functional; conditions: read-out: Activity
K562 [8] = assay: Induction of apoptosis in human K562 cells assessed as early apoptotic cells at 10 uM incubated for 24 hrs by Annexin V-FITC staining based flow cytometric analysis (reference value: 3.90 % ); format: functional
K562 [9] = assay: Induction of apoptosis in human K562 cells assessed as late apoptotic cells at 10 uM incubated for 24 hrs by Annexin V-FITC staining based flow cytometric analysis (reference value: 1.82 % ); format: functional
K562 [10] = assay: Induction of apoptosis in human K562 cells assessed as necrotic cells at 10 uM incubated for 24 hrs by Annexin V-FITC staining based flow cytometric analysis (reference value: 0.82 % ); format: functional
K562 [11] = assay: Induction of apoptosis in human K562 cells assessed as total apoptotic cells at 10 uM incubated for 24 hrs by Annexin V-FITC staining based flow cytometric analysis (reference value: 5.72 % ); format: functional
K562 [12] = assay: Induction of apoptosis in human K562 cells assessed as viable cells at 2.5 uM incubated for 24 hrs by Annexin V-FITC staining based flow cytometric analysis (reference value: 93.4 % ); format: functional; conditions: read-out: Activity
K562 [13] = assay: Induction of apoptosis in human K562 cells assessed as early apoptotic cells at 2.5 uM incubated for 24 hrs by Annexin V-FITC staining based flow cytometric analysis (reference value: 3.90 % ); format: functional
K562 [14] = assay: Induction of apoptosis in human K562 cells assessed as late apoptotic cells at 2.5 uM incubated for 24 hrs by Annexin V-FITC staining based flow cytometric analysis (reference value: 1.82 % ); format: functional
K562 [15] = assay: Induction of apoptosis in human K562 cells assessed as necrotic cells at 2.5 uM incubated for 24 hrs by Annexin V-FITC staining based flow cytometric analysis (reference value: 0.82 % ); format: functional
K562 [16] = assay: Induction of apoptosis in human K562 cells assessed as viable cells at 5 uM incubated for 24 hrs by Annexin V-FITC staining based flow cytometric analysis (reference value: 93.4 % ); format: functional; conditions: read-out: Activity
K562 [17] = assay: Induction of apoptosis in human K562 cells assessed as early apoptotic cells at 5 uM incubated for 24 hrs by Annexin V-FITC staining based flow cytometric analysis (reference value: 3.90 % ); format: functional
K562 [18] = assay: Induction of apoptosis in human K562 cells assessed as late apoptotic cells at 5 uM incubated for 24 hrs by Annexin V-FITC staining based flow cytometric analysis (reference value: 1.82 % ); format: functional
K562 [19] = assay: Induction of apoptosis in human K562 cells assessed as necrotic cells at 5 uM incubated for 24 hrs by Annexin V-FITC staining based flow cytometric analysis (reference value: 0.82 % ); format: functional

Compound	IC50 (K562 [1])	IC50 (HL-60)	IC50 (MCF7)	further results
Cc1cn(-c2cccc(NC(=O)c3ccc(CN4CCN(C)CC4)cc3)c2)c(C)n1	15.8 µM	36 µM	> 50 µM	–
CN1CCN(Cc2ccc(C(=O)Nc3cc(-n4ccnc4)cc(C(F)(F)F)c3)cc2)CC1	15.4 µM	18.8 µM	29 µM	–
CCCCN1CCN(Cc2ccc(C(=O)Nc3cc(-n4cnc(C)c4)cc(C(F)(F)F)c3)cc2)CC1	6.03 µM	17.9 µM	20.1 µM	Activity (K562 [2]): Active; inhibition [3]: Active; inhibition [4]: Active; Activity (K562 [5]): Dose-Dependent Effect; Activity (K562 [6]): Dose-Dependent Effect
Cc1cn(-c2cc(NC(=O)c3ccc(CN4CCOC(C)C4)cc3)cc(C(F)(F)F)c2)cn1 (stereo unspecified)	16.8 µM	25.8 µM	> 50 µM	–
Cc1cn(-c2cc(NC(=O)c3ccc(CN4CCN(C)CC4)cc3)cc(C(F)(F)F)c2)cn1	13.6 µM	21.2 µM	19 µM	–
COc1ccc(NC(=O)c2ccc(CN3CCN(C)CC3)cc2)cc1-n1cc(C)nc1C	31.4 µM	23.4 µM	29.1 µM	–
Cc1cn(-c2cc(NC(=O)c3ccc(CN4CCOCC4)cc3)cc(C(F)(F)F)c2)cn1	23.6 µM	> 50 µM	> 50 µM	–
CN1CCN(Cc2ccc(C(=O)Nc3cc(-n4cnc(C#N)c4)cc(C(F)(F)F)c3)cc2)CC1	13.3 µM	18.6 µM	15.6 µM	–
CCN1CCN(Cc2ccc(C(=O)Nc3cc(-n4cnc(C)c4)cc(C(F)(F)F)c3)cc2)CC1	13.3 µM	17.2 µM	> 50 µM	–
CC(=O)N1CCN(Cc2ccc(C(=O)Nc3cc(-n4cnc(C)c4)cc(C(F)(F)F)c3)cc2)CC1	> 50 µM	> 50 µM	> 50 µM	–
CCCCN1CCN(Cc2ccc(C(=O)Nc3cc(-n4ccnc4)cc(C(F)(F)F)c3)cc2)CC1	22.4 µM	34.9 µM	30.2 µM	–
Cc1ccc(NC(=O)c2ccc(CN3CCN(C)CC3)cc2)cc1Nc1nccc(-c2cccnc2)n1 [IMATINIB]	14 µM	17.2 µM	25.6 µM	viability at 10 µM (K562 [7]): 76.7%; Activity (K562 [8]): 4.9%; Activity (K562 [9]): 18.2%; Activity (K562 [10]): 0.2%; Activity (K562 [11]): 23.1%
CCCCN1CCN(Cc2ccc(C(=O)Nc3ccc(C)c(-n4cnc(C)c4)c3)cc2)CC1	33.2 µM	> 50 µM	> 50 µM	–
Cc1cn(-c2cc(NC(=O)c3ccc(CN4CCN(C(C)C)CC4)cc3)cc(C(F)(F)F)c2)cn1	10.5 µM	14.8 µM	13.1 µM	–
Cc1cn(-c2cc(NC(=O)c3ccc(CN4CCN(C)CC4)cc3)cc(C(F)(F)F)c2)c(C)n1	10.8 µM	17 µM	9.61 µM	–
Cc1cn(-c2cc(NC(=O)c3ccc(CN4CC(C)OC(C)C4)cc3)cc(C(F)(F)F)c2)cn1 (stereo unspecified)	13.2 µM	22.1 µM	40.6 µM	–
Cc1cn(-c2cc(NC(=O)c3ccc(CN4CCN(C)CC4)cc3)ccc2C)cn1	39.7 µM	> 50 µM	> 50 µM	–
Cc1cn(-c2cc(NC(=O)c3ccc(CN4CCN(C(=O)C5CC5)CC4)cc3)cc(C(F)(F)F)c2)cn1	14.5 µM	13.3 µM	> 50 µM	–
Cc1cn(-c2cc(NC(=O)c3ccc(CN4CCOC[C@@H]4C)cc3)cc(C(F)(F)F)c2)cn1	24.1 µM	16.9 µM	24.2 µM	–
Cc1cn(-c2cc(NC(=O)c3ccc(CN4CCCC4)cc3)cc(C(F)(F)F)c2)cn1	13.4 µM	24.9 µM	37.9 µM	–
Cc1cn(-c2cc(NC(=O)c3ccc(CN4CCN(C(C)(C)C)CC4)cc3)cc(C(F)(F)F)c2)cn1	5.66 µM	16.8 µM	23.5 µM	Activity (K562 [2]): Active; viability at 2.5 µM (K562 [12]): 86.3%; Activity (K562 [13]): 1.9%; Activity (K562 [14]): 10.84%; Activity (K562 [15]): 1%; viability at 5 µM (K562 [16]): 71.1%; Activity (K562 [17]): 2.8%; Activity (K562 [18]): 22.68%; Activity (K562 [19]): 3.44%; viability at 10 µM (K562 [7]): 57.9%; Activity (K562 [8]): 3.02%; Activity (K562 [9]): 34.56%; Activity (K562 [10]): 4.56%; Activity (K562 [11]): 37.58%; inhibition [3]: Active; inhibition [4]: Active; Activity (K562 [5]): Dose-Dependent Effect; Activity (K562 [6]): Dose-Dependent Effect
